The target in the assay is Set1/Ash2 histone methyltransferase complex subunit ASH2 (Homo sapiens, UniProt Q9UBL3). As to the kind of experiment: Filter-paper Assay. The procedure:
This assay relies on Whatman P-81 filter paper, which binds peptides but not SAM. Protein Methyl Transferases (PMTs) transfer 3H-Me of [3H-Me]-SAM to peptide substrates and the resultant 3H-methylated, filter-paper-bound peptide is quantified with a scintillation counter. Briefly, 6 μL of the methylation reaction was spotted onto Whatman P-81 phosphocellulose filter paper (1.2×1.2 cm2) to immobilize the 3H-labeled peptide. After drying in air for 20 min, the filter paper was immersed into 20 mL of 50 mM Na2CO3/NaHCO3 buffer (pH=9.2), and washed 5 times for 10 min each time. The washed filter paper was then transferred to a 20 mL scintillation vial containing 1 mL of distilled water and 10 mL of Ultima Gold scintillation cocktail or 7 mL scintillation vial containing 0.5 mL od distilled water and 5 mL of scintillation cocktail (PerkinElmer). The radioactivity was quantified by a Beckman LS6000IC liquid scintillation counter.
Sequence of Set1/Ash2 histone methyltransferase complex subunit ASH2 (Q9UBL3 whole entry, one chain of several): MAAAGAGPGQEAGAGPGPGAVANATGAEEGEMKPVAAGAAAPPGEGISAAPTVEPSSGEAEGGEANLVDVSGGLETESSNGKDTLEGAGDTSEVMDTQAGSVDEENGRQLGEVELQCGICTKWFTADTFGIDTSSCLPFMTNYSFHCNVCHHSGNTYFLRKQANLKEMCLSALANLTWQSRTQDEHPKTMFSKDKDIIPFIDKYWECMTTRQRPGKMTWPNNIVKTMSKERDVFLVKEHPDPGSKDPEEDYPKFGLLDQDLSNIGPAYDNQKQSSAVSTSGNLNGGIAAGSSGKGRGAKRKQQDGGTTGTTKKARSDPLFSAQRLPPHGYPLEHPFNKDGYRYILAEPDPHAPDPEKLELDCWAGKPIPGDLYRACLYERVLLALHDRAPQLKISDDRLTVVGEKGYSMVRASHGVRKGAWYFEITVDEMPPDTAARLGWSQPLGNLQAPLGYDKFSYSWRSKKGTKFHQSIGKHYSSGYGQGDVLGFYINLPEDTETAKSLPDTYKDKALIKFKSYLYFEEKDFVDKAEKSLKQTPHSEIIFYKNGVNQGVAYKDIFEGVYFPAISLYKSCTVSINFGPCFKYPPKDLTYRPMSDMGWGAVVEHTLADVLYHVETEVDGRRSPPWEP
`CCCNC(=O)[C@@H](N)CC[C@@H](CC1OC(n2cnc3c(N)ncnc32)C(O)C1O)Nc1ccccc1` (stereo partly drawn) [US12043645, Example 7]: the IC50 (as a rule, the concentration needed to halve the response being measured) was 20 nM.

Regarding `Nc1ncnc2c1ncn2C1OC(C[C@H](CC[C@H](N)C(=O)NCCc2cc(-c3ccccc3)[nH]n2)Nc2ccccc2)C(O)C1O` (stereo partly drawn) [US12043645, Example 5], the IC50 stood at 2200 nM. In the case of `COc1ccc(CCNC(=O)[C@@H](N)CC[C@@H](CC2OC(n3cnc4c(N)ncnc43)C(O)C2O)Nc2ccccc2)cc1` (stereo partly drawn) [US12043645, Example 1] it was 390 nM.

The values are drawn from BindingDB's records for patent US12043645 (Memorial Sloan-Kettering Cancer Center, 2024).
